In publication PMC11375794, “Discovery of new Hsp90–Cdc37 protein–protein interaction inhibitors: in silico screening and optimization of anticancer activity” (RSC Advances, 2024):

What was measured:
[1] = molecular target: T1, full-length Hsp90β and Cdc37 (Homo sapiens, UniProt P08238); test: MST PPI inhibition evaluation: Kd for Hsp90β in the presence of Cdc37; format: binding
T1 construct: host or cells: Escherichia coli strain Rosetta (Hsp90β)
Protocol: (§1) The full-length Hsp90β was labeled using the Monolith His-Tag Labeling Kit RED-tris-NTA following the manufacturer's instructions (NanoTemper Technologies GmbH, Munich, Germany). The proteins were first diluted to a concentration of 8 nM in assay buffer (50 mM Tris–HCl, pH 7.4, containing 150 mM NaCl, 5% ethanol, and 10 mM MgCl2). To determine the Kd values, the proteins were mixed with the test compounds in a 1 : 1 ratio as stated in the manufacturers protocol. The final concentration of Hsp90β was 4 nM, with compounds added in the following ranges: 1000 μM to 5.86 μM for 8c; 312.5 μM to 0.15 μM for 13g and 125 μM to 3.91 μM for 1. Two independent Kd determinations were performed for compounds 8c and 13g. […] Next, Cdc37 (AR09008PUN, OriGene Technologies, Inc., Rockville, MD, USA) was acquired for the purpose of PPI inhibition evaluation between full-length Hsp90β and Cdc37. […] In all experiments the compounds were incubated with the proteins for 15 minutes in the dark at room temperature. The mixtures were then loaded into Monolith NT.115 Premium Capillaries (NanoTemper Technologies GmbH, Munich, Germany). Thermophoresis was induced at 1475 ± 15 nm and measured using a Monolith NT.115 pico instrument (NanoTemper Technologies GmbH, Munich, Germany). Measurements were conducted at ambient temperature (24–25 °C), with excitation power set to 20% and MST power set to 40%, and a laser on time of 5 seconds. To calculate the Kd values, the average fluorescence responses for each concentration were plotted against the logarithm of compound concentrate on using GraphPad Prism software (GraphPad Software, Inc., La Jolla, CA).

full-length Hsp90β [2] = molecular target: T2, full-length Hsp90β (Homo sapiens, UniProt P08238); test: Microscale thermophoresis (MST) binding to Hsp90β; details: full-length Hsp90β, absence of Cdc37
T2 construct: For the protein expression of full-length Hsp90β, we received plasmids as a kind gift; made in house; host or cells: Escherichia coli strain Rosetta
T2 sequence (P08238 whole entry): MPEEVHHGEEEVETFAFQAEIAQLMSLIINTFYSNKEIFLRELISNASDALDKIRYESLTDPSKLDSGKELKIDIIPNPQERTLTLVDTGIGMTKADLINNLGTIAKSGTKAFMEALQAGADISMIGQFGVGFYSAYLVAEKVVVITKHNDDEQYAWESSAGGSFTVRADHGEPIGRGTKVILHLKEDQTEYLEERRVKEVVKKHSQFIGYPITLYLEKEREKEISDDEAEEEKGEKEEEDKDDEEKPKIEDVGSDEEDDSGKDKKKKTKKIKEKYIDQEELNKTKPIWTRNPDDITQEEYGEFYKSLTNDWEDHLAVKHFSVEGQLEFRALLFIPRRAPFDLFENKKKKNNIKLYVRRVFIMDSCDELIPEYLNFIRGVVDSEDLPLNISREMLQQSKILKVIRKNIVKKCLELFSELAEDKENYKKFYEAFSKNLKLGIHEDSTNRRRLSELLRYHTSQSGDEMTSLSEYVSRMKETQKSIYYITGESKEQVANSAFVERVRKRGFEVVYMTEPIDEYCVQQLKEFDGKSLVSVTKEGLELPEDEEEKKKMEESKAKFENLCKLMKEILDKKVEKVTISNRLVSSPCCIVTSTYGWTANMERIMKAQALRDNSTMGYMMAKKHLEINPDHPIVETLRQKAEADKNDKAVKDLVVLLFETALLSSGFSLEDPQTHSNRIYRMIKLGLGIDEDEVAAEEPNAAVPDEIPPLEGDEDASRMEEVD
Protocol: For the protein expression of full-length Hsp90β, we received plasmids as a kind gift from Dr Asta Zubriené at the Institute of Biotechnology, Vilnius University, Lithuania. Hsp90β, tagged with N-terminal 6×His-tag, was expressed in Escherichia coli strain Rosetta. The cells were cultured in LB media supplemented with kanamycin (50 μg mL^−1) and chloramphenicol (34 μg mL^−1) at 37 °C, and protein expression was initiated with 0.5 mM isopropyl β-D-1-thiogalactopyranoside (IPTG) when the OD600 reached 0.8. Following induction, the cells were incubated for 16 hours at 18 °C before being harvested by centrifugation. The cells were resuspended in a lysis buffer containing 40 mM potassium phosphate pH 8.0, 400 mM KCl, 10 mM imidazole, and protease inhibitors (Sigma), and then lysed by sonication. After centrifugation, the proteins were initially purified using a Ni^2+-affinity HisTrap column (GE Healthcare). Impurities were washed away with lysis buffer containing 20–40 mM imidazole, and Hsp90β was subsequently eluted with lysis buffer containing 300 mM imidazole. The purification process continued with size exclusion chromatography (SEC) using a Superdex-200 (16/600) column (GE Healthcare) and a running buffer of 50 mM Tris pH 7.5 at room temperature, 300 mM KCl. The purity of the fractions was confirmed by SDS-PAGE, and they were then concentrated. For the NMR experiments, Hsp90β was dialyzed against NMR buffer (50 mM potassium phosphate pD 7.5, 100 mM KCl, 2 mM DTT (98%, D10) in D2O) and subsequently frozen in liquid nitrogen.
as §1

full-length Hsp90β [3] = molecular target: T2, full-length Hsp90β; test: Ligand-observed protein NMR (STD, trNOESY) with Hsp90β; format: binding; details: for STD amplification factor (AMP): Hsp90β : ligand 1 : 200
Protocol: High-resolution NMR spectra of 13g were recorded using a Bruker Avance Neo 600 MHz spectrometer with a cryoprobe at 25 °C. Data collection employed pulse sequences from the Bruker library, and analysis was conducted using Bruker Topspin 4.2.0. The residual water signal was suppressed by excitation sculpting[54] with a 5 ms selective pulse, and a T1ρ filter of 100 ms was used to remove background protein resonances. The ^1H spectral widths were set at 5263 Hz. NMR samples were prepared in a buffer containing 50 mM potassium phosphate (pD 7.5), 100 mM KCl in D2O, 5 mM MgSO4, 2 mM DTT-d10, 0.02% NaN3, and 2% DMSO-d6. Full proton assignment (see ESI Fig. S6 and Table S2 ^†) was achieved using TOCSY, NOESY, ROESY, and HSQC spectra. The ^1H STD spectra were recorded with a protein : ligand ratio of 1 : 200, with protein and ligand concentrations of […] and 3 mM.
For the ^1H STD ligand epitope mapping experiments,[55] 65 536 data points (6.23 s and acquisition time) were used, with a relaxation delay of 1.63 s and 5120 scans. A short protein saturation time of 0.5 s was utilized to minimize the effect of relaxation on the STD amplification factors.[56] Selective on-resonance saturation of Hsp90β was performed at −0.827 ppm, with the transmitter offset referenced to 4.70 ppm. Off-resonance irradiation for the reference spectrum was applied at 30 ppm. The spectra were zero-filled and apodized using an exponential line-broadening function of 3 Hz. Errors in the STD amplification factor were estimated using the specified formula:[57] [drawing 46] NSTD and NREF are noise levels in STD and reference spectra. ISTD and IREF are signal intensities in STD and reference spectra. The relative errors of the STD amplification factors (Tables S3 and S6 ^†) for all protons are below 4%.
The trNOESY[58] spectra were recorded with 4096 data points in t2, 64 scans, 360 complex points in t1, and a relaxation delay of 1.5 s. […] The spectra were apodized with a squared sine bell function shifted by π/2 in both dimensions. Distances for 13g were calculated from the cross-peak volumes, assuming the integrated intensity of proton pairs 2′, 4′ and 1′, 5′ in the para-substituted phenyl ring with a distance of 2.5 Å and that the distances of the protons in pyrimidine ring are the same.

T1 sequence (P08238 whole entry): as above

CN(CCOc1ccccc1)C(=O)c1csc(Nc2cc(N3CCNCC3)ncn2)n1 [Compound 8c, N-Methyl-N-(2-phenoxyethyl)-2-((6-(piperazin-1-yl)pyrimidin-4-yl)amino)thiazole-4-carboxamide]
Kd ([1]; 0.5 μM Cdc37): 81.7 µM
Kd ([1]; 1.0 μM Cdc37): 90.2 µM
Kd ([1]; 2.0 μM Cdc37): 98.2 µM
Kd (full-length Hsp90β [2]): 70.8 µM

O=C(NCCOc1ccccc1)c1ccc(Nc2cc(N3CCNCC3)ncn2)cc1 [Compound 13g, N-(2-Phenoxyethyl)-4-((6-(piperazin-1-yl)pyrimidin-4-yl)amino)benzamide]
Kd (Hsp90β) in presence of Cdc37 ([1]; 1.0 μM Cdc37): too low for quantification
Kd (full-length Hsp90β [2]): 73.3 µM
binding to Hsp90β by transferred NOESY (trNOESY) (full-length Hsp90β [3]; negative NOEs in the presence of Hsp90β): confirmed
STD amplification factor (AMP) (full-length Hsp90β [3]; proton 1''): 0.83
STD amplification factor (AMP) (full-length Hsp90β [3]; proton 3''): 4.88
STD amplification factor (AMP) (full-length Hsp90β [3]; protons 1', 5'): 1.75
STD amplification factor (AMP) (full-length Hsp90β [3]; protons 1, 5): 2.18
STD amplification factor (AMP) (full-length Hsp90β [3]; protons 2', 4'): 1.78
STD amplification factor (AMP) (full-length Hsp90β [3]; protons 2,3,4): 2.14
